Results from PubChem BioAssay (NCI).
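Protocol summary: plate cells (96-well), add compound at 5 concentrations, incubate 48 h, interpolate endpoints linearly. TGI denotes the concentration required for complete inhibition of growth.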

Assays:
Test in all cases: NCI anticancer screen, dose series, 48 h
786-0 renal = tested on: 786-0 renal
A498 renal = tested on: A498 renal
A549 NSCLC = tested on: A549 NSCLC
ACHN renal = tested on: ACHN renal
CAKI-1 renal = tested on: CAKI-1 renal
CCRF-CEM leukemia = tested on: CCRF-CEM leukemia
COLO 205 colon = tested on: COLO 205 colon
DU-145 prostate = tested on: DU-145 prostate
EKVX NSCLC = tested on: EKVX NSCLC
HCC-2998 colon = tested on: HCC-2998 colon
HCT-116 colon = tested on: HCT-116 colon
HCT-15 colon = tested on: HCT-15 colon
HOP-62 NSCLC = tested on: HOP-62 NSCLC
HOP-92 NSCLC = tested on: HOP-92 NSCLC
HS 578T breast = tested on: HS 578T breast
HT29 colon = tested on: HT29 colon
IGROV1 ovarian = tested on: IGROV1 ovarian
K-562 leukemia = tested on: K-562 leukemia
KM12 colon = tested on: KM12 colon
LOX IMVI melanoma = tested on: LOX IMVI melanoma
MALME-3M melanoma = tested on: MALME-3M melanoma
MDA-MB-231 breast = tested on: MDA-MB-231 breast
MDA-MB-435 = tested on: MDA-MB-435
MDA-N = tested on: MDA-N
MOLT-4 leukemia = tested on: MOLT-4 leukemia
NCI-H226 lung = tested on: NCI-H226 lung
NCI-H23 lung = tested on: NCI-H23 lung
NCI-H460 lung = tested on: NCI-H460 lung
NCI-H522 lung = tested on: NCI-H522 lung
NCI/ADR-RES ovarian = tested on: NCI/ADR-RES ovarian
OVCAR-4 ovarian = tested on: OVCAR-4 ovarian
OVCAR-5 ovarian = tested on: OVCAR-5 ovarian
OVCAR-8 ovarian = tested on: OVCAR-8 ovarian
PC-3 prostate = tested on: PC-3 prostate
RPMI-8226 leukemia = tested on: RPMI-8226 leukemia
RXF 393 renal = tested on: RXF 393 renal
SF-268 CNS = tested on: SF-268 CNS
SF-295 CNS = tested on: SF-295 CNS
SF-539 CNS = tested on: SF-539 CNS
SK-MEL-2 melanoma = tested on: SK-MEL-2 melanoma
SK-MEL-28 melanoma = tested on: SK-MEL-28 melanoma
SK-MEL-5 melanoma = tested on: SK-MEL-5 melanoma
SK-OV-3 ovarian = tested on: SK-OV-3 ovarian
SN12C renal = tested on: SN12C renal
SNB-19 CNS = tested on: SNB-19 CNS
SNB-75 CNS = tested on: SNB-75 CNS
SR leukemia = tested on: SR leukemia
SW-620 colon = tested on: SW-620 colon
T-47D breast = tested on: T-47D breast
TK-10 renal = tested on: TK-10 renal
U251 CNS = tested on: U251 CNS
UACC-257 melanoma = tested on: UACC-257 melanoma
UACC-62 melanoma = tested on: UACC-62 melanoma
UO-31 renal = tested on: UO-31 renal

Question: How did the TGI (786-0 renal) turn out when `N=C1N(/N=C/c2ccccn2)C(=Nc2ccccc2)C(=S)N1c1ccccc1` was run?
Answer: Its TGI is 13.7 µM.

Question: What about the TGI (A498 renal) of the same compound?
Answer: Its TGI is 39.5 µM.

Question: And the TGI (A549 NSCLC)?
Answer: Its TGI is 23.8 µM.

Question: And the TGI (ACHN renal)?
Answer: Its TGI is 7.96 µM.

Question: What about the TGI (CAKI-1 renal) of the same compound?
Answer: The TGI was 20 µM.

Question: And the TGI (CCRF-CEM leukemia)?
Answer: Its TGI is over 100 µM.

Question: What about the TGI (COLO 205 colon) of the same compound?
Answer: Its TGI is 5.36 µM.

Question: What about the TGI (DU-145 prostate) of the same compound?
Answer: The TGI was 13.4 µM.

Question: And the TGI (EKVX NSCLC)?
Answer: The TGI was 15.9 µM.

Question: What about the TGI (HCC-2998 colon) of the same compound?
Answer: The TGI was 22 µM.

Question: And the TGI (HCT-116 colon)?
Answer: The TGI was 8.34 µM.

Question: What about the TGI (HCT-15 colon) of the same compound?
Answer: Its TGI is 12.2 µM.

Question: And the TGI (HOP-62 NSCLC)?
Answer: Its TGI is 22 µM.

Question: What about the TGI (HOP-92 NSCLC) of the same compound?
Answer: Its TGI is 22.9 µM.

Question: What about the TGI (HS 578T breast) of the same compound?
Answer: Its TGI is 29.4 µM.

Question: What about the TGI (HT29 colon) of the same compound?
Answer: Its TGI is 13.6 µM.

Question: And the TGI (IGROV1 ovarian)?
Answer: Its TGI is 18.8 µM.

Question: And the TGI (K-562 leukemia)?
Answer: Its TGI is over 100 µM.

Question: And the TGI (KM12 colon)?
Answer: The TGI was 17.3 µM.

Question: And the TGI (LOX IMVI melanoma)?
Answer: Its TGI is 11.3 µM.

Question: What about the TGI (MALME-3M melanoma) of the same compound?
Answer: The TGI was 22.8 µM.

Question: And the TGI (MDA-MB-231 breast)?
Answer: Its TGI is 19.8 µM.

Question: And the TGI (MDA-MB-435)?
Answer: The TGI was 17.4 µM.

Question: And the TGI (MDA-N)?
Answer: Its TGI is 11.8 µM.

Question: What about the TGI (MOLT-4 leukemia) of the same compound?
Answer: Its TGI is over 100 µM.

Question: And the TGI (NCI-H226 lung)?
Answer: Its TGI is 32.9 µM.

Question: What about the TGI (NCI-H23 lung) of the same compound?
Answer: The TGI was 19.5 µM.

Question: And the TGI (NCI-H460 lung)?
Answer: Its TGI is 15.9 µM.

Question: And the TGI (NCI-H522 lung)?
Answer: Its TGI is 3.72 µM.

Question: What about the TGI (NCI/ADR-RES ovarian) of the same compound?
Answer: The TGI was 10.6 µM.

Question: What about the TGI (OVCAR-4 ovarian) of the same compound?
Answer: The TGI was 23.9 µM.

Question: What about the TGI (OVCAR-5 ovarian) of the same compound?
Answer: The TGI was 17.5 µM.

Question: And the TGI (OVCAR-8 ovarian)?
Answer: Its TGI is 13.8 µM.

Question: What about the TGI (PC-3 prostate) of the same compound?
Answer: The TGI was 15.8 µM.

Question: What about the TGI (RPMI-8226 leukemia) of the same compound?
Answer: Its TGI is over 100 µM.

Question: What about the TGI (RXF 393 renal) of the same compound?
Answer: The TGI was 16.4 µM.

Question: What about the TGI (SF-268 CNS) of the same compound?
Answer: Its TGI is 18.3 µM.

Question: And the TGI (SF-295 CNS)?
Answer: The TGI was 19 µM.

Question: And the TGI (SF-539 CNS)?
Answer: Its TGI is 15.8 µM.

Question: What about the TGI (SK-MEL-2 melanoma) of the same compound?
Answer: The TGI was 12.8 µM.

Question: And the TGI (SK-MEL-28 melanoma)?
Answer: Its TGI is 23 µM.

Question: And the TGI (SK-MEL-5 melanoma)?
Answer: Its TGI is 16.5 µM.

Question: And the TGI (SK-OV-3 ovarian)?
Answer: The TGI was 42.8 µM.

Question: What about the TGI (SN12C renal) of the same compound?
Answer: The TGI was 17.9 µM.

Question: And the TGI (SNB-19 CNS)?
Answer: The TGI was 31.2 µM.

Question: And the TGI (SNB-75 CNS)?
Answer: Its TGI is 42.2 µM.

Question: What about the TGI (SR leukemia) of the same compound?
Answer: The TGI was over 100 µM.

Question: What about the TGI (SW-620 colon) of the same compound?
Answer: The TGI was 16.3 µM.

Question: What about the TGI (T-47D breast) of the same compound?
Answer: Its TGI is 21.1 µM.

Question: And the TGI (TK-10 renal)?
Answer: The TGI was 22.9 µM.

Question: And the TGI (U251 CNS)?
Answer: The TGI was 20.7 µM.

Question: What about the TGI (UACC-257 melanoma) of the same compound?
Answer: Its TGI is 21.3 µM.

Question: What about the TGI (UACC-62 melanoma) of the same compound?
Answer: The TGI was 4.61 µM.

Question: What about the TGI (UO-31 renal) of the same compound?
Answer: Its TGI is 16 µM.
